Experimental data as given in US20090076140A1, “PHARMACEUTICAL COMPOSITIONS CONTAINING SULPHONIC ACID DERIVATIVES” (ITALFARMACO, S. A., priority 2003, published 2009).
“Also recorded” adds a separate entry of the source. Where two headings read alike, the source gives them in different places.

Assays:
[1] = system: C6 glioma cells; assay: angiogenesis and tumor growth inhibition, C6 glioma cells implanted in rat brain; type: in vivo, rats
Description: A test similar to the one described in Example 3.1 was performed with rats, implanting the C6 glioma cells in the caudal area of the brain and the osmotic micropump in the back of the rats. A catheter led the treatment solution that contained the C-9 compound or the saline solution to the area of the glioma implant. Coronal sections of the brain of the rats thus treated were obtained and compared with coronal sections of the brain of untreated rats. The analysis was done by means of NMR spectroscopy imaging.

[2] = toxicity observations in the mouse angiogenesis test; type: in vivo; settings: highest tested concentrations
Description: (§1) Pathogen-free C57/BI/6 mice (Charles River, Spain) weighing 25±4 g were used. The animals were kept in plastic cages under controlled temperature and humidity conditions; they had water and food ad libitum and a schedule of 12 hours of daylight and darkness was maintained. The guidelines on animal welfare of the NIH and the European Union were followed meticulously.
10 mm long sterile gelatin sponge cubes (Curaspon Dental, Clinimed Holding, Zwanenburg, Holland) were subcutaneously implanted in the backs of the mice after inducing intraperitoneal anesthesia [Cuevas, P. et al. (1999) Neurol. Res. 21, 191-194]. The animals were distributed into 2 groups: Group A (n=10): formed by animals in which sponges loaded with 200 μL of phosphate buffered saline (PBS) containing 29 μg/mL of heparin were implanted; and Group B (n=40): formed by animals in which sponges soaked with the same solution as that of Group A but containing 10 μg/mL of aFGF were implanted. The skin was sutured after implanting the sponge in the subcutaneous bursa. The mice in Group B were randomly divided into four groups (n=10) that received 0.008, 0.08, 0.8 and 8 mg/kg of compound C-9, respectively, by means of intraperitoneal injection of 200 μL of PBS 24 hours after surgical treatment [Pesenti, E. et al. (1992) Brit. J. Cancer 66, 367-372; Cuevas, P. et al. (1999) Neurol. Res. 21, 191-194]. […]

[3] = system: glioma C6 cells; assay: angiogenesis and tumor growth inhibition, glioma C6 cells implanted in rabbit cornea; type: in vivo, Albino New Zealand rabbits
Description: Albino New Zealand rabbits (3±0.5 kg, male and female in equal numbers) were used and were implanted with 5 μL of a glioma C6 cell suspension [ATCC CCL-107] subepithelially injected into the cornea with a 10 μL Hamilton syringe using a surgical microscope. The injection is located at 2 mm from the limbal margin of the cornea. At the same time, an osmotic minipump was subcutaneously implanted in the neck region for the purpose of assuring continuous infusion of the compound to be tested (C-9) or of a saline solution (control). A catheter guided the solution to the sclera at a constant rate of 0.2 mg/h. It is thus calculated that a concentration of about 0.003 mg/mL of the compound to be tested or saline solution is maintained in the cornea. Treatment was maintained for 14 days. The corneas were eliminated at the end of each experiment and at fixed intervals after each treatment and processed for histological examination.

[4] = target: bFGF (Homo sapiens, UniProt P09038); assay: angiogenesis inhibition test in mice with aFGF substituted with bFGF; type: in vivo; settings: data not shown
bFGF, sequence (P09038 143-288, species assumed): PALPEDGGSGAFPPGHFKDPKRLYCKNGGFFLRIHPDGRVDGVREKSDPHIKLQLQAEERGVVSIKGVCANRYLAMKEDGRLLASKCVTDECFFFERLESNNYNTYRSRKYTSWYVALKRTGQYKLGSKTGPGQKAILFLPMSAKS

[5] = target: T1, aFGF (Homo sapiens, UniProt P05230); assay: aFGF-induced mitogenesis inhibition test on fibroblasts in culture; type: cell-based; set-up: the aFGF of 139 amino acid residues; settings: for aFGF-induced mitogenic activity inhibition (in words): 60 hours, MIHS 20 μg/mL, aFGF 0.32 ng/mL
Target sequence in this assay (P05230 16-155 limits assumed): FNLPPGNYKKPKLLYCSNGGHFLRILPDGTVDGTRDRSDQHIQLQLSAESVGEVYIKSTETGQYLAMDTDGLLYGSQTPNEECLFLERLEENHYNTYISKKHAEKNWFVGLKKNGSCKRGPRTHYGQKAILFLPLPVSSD

[6] = target: T1, aFGF; assay: angiogenesis inhibition test in mice (aFGF-soaked gelatin sponge implants); type: in vivo
Description: A standard angiogenesis test was performed with mice in order to evaluate the C-9 compound as an angiogenesis inhibitor.
as §1
Target sequence in this assay (P05230 whole entry, species assumed): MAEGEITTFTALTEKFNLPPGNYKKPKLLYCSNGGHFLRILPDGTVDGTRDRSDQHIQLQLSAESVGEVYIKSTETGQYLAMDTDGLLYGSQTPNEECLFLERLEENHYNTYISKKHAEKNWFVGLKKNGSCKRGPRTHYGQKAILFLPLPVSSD
10 mm long sterile gelatin sponge cubes (Curaspon Dental, Clinimed Holding, Zwanenburg, Holland) were subcutaneously implanted in the backs of the mice after inducing intraperitoneal anesthesia [Cuevas, P. et al. (1999) Neurol. Res. 21, 191-194]. The animals were distributed into 2 groups: Group A (n=10): formed by animals in which sponges loaded with 200 μL of phosphate buffered saline (PBS) containing 29 μg/mL of heparin were implanted; and Group B (n=40): formed by animals in which sponges soaked with the same solution as that of Group A but containing 10 μg/mL of aFGF were implanted. The skin was sutured after implanting the sponge in the subcutaneous bursa. The mice in Group B were randomly divided into four groups (n=10) that received 0.008, 0.08, 0.8 and 8 mg/kg of compound C-9, respectively, by means of intraperitoneal injection of 200 μL of PBS 24 hours after surgical treatment [Pesenti, E. et al. (1992) Brit. J. Cancer 66, 367-372; Cuevas, P. et al. (1999) Neurol. Res. 21, 191-194]. All the procedures were performed under sterile conditions.
In order to evaluate angiogenesis, the mice were again anesthetized as previously described, and the sponges were surgically extracted, which were treated to perform histological studies by means of conventional methods [Cuevas, P. et al. (1999) Neurol. Res. 21, 191-194] 7 days after the implants. Neovascularization was quantified by means of a morphometric computer program connected to a microscope. The growth of new vessels inside the sponges was evaluated by means of the measurement of the surface area containing erythrocytes. Neovascularization was analyzed in 4 predetermined visual fields of 3 different sections at a magnification of 10. The statistical analyses were performed using Student's t-Test.

[7] = system: quiescent fibroblasts (Balb/c 3T3); assay: toxicity analysis for quiescent fibroblasts (culture in the absence of aFGF); type: cell-based; settings: for toxicity for quiescent fibroblasts: within the concentration range tested / in which aFGF mitogenic activity is inhibited
[8] = target: T1, aFGF; set-up: the aFGF of 139 amino acid residues; settings: Lozano et al. (1998), cited from earlier work
Target sequence in this assay (P05230 16-155 limits assumed): as the sequence (P05230 16-155 limits assumed) above

[9] = target: T1, aFGF; settings: literature (Pesenti et al.; Cuevas et al.); cited from earlier work
Target sequence in this assay (P05230 whole entry, species assumed): as the sequence (P05230 whole entry, species assumed) above

[10] = target: T1, aFGF; settings: in vitro and in vivo; cited from earlier work
Target sequence in this assay (P05230 whole entry, species assumed): as above

[11] = system: quiescent fibroblasts (Balb/c 3T3); settings: Lozano et al. (1998), cited from earlier work

Structure (SMILES): Nc1cccc2cc(S(=O)(=O)[O-])ccc12.[Na+] [Compound C-9, sodium 5-amino-2-naphthalenesulfonate]
- tumor mass ([1]; NMR imaging of coronal brain sections vs untreated rats): significantly decreased
- intratumor vascularization inhibition (factor) ([1]; rat, in vivo): six
- toxic death or apparent alterations in the animals [2]: did not cause any toxic death or apparent alterations
- weight changes [2]: nor did it cause weight changes
- apoptosis index ([3]; continuous infusion 0.2 mg/h, 14 days): very positive
- corneal neovascularization area ([3]; in comparison with the untreated animals): very reduced
- apoptotic endothelial nuclei (microscopic observation) ([3]; treated animals): presence of apoptotic endothelial nuclei
- broken blood vessels (microscopic observation) ([3]; treated animals): presence of broken blood vessels
- number of apoptotic bodies (microscopic observation) ([3]; treated animals): higher number
- number of glioma C6 cells (microscopic observation) ([3]; treated animals): lower number
- neovascularization inhibition with bFGF instead of aFGF [4]: Equivalent results
- aFGF-induced mitogenic activity inhibition (in words) ([5]; Balb/c 3T3 fibroblasts): potent aFGF-induced mitogenic activity inhibitors
- aFGF-induced mitogenic inhibitory activity compared between compounds (stereochemical guidelines) ([5]; C-9 and C-17 vs. C-14 and C-18, C-10, C-11, C-13 vs. C-9, 2-NMS vs 1-NMS series): better aFGF-induced mitogenic activity inhibitors
- IC50 rank among the tested compounds ([5]; aFGF-induced mitogenesis): second best IC50 value
- IC50 ([5]; aFGF-induced mitogenesis, Balb/c 3T3 fibroblasts, read-out: inhibitory activity IC50): 265 µM
- neovascularization inhibition ([6]; 0.008 mg/kg intraperitoneal, 7 days after implants): already assessable
- neovascularization inhibition ([6]; 0.08 mg/kg intraperitoneal, 7 days after implants): already assessable
- cellular infiltration in aFGF-soaked sponge implants ([6]; 8 mg/kg intraperitoneal, FIG. 2): disappears
- neovascularization inhibition ([6]; doses exceeding 0.8 mg/kg intraperitoneal): virtually complete
- aFGF-induced angiogenic activity inhibition (in words) ([6]; mouse, in vivo): aFGF-induced angiogenic activity inhibitors
- neovascularization inhibition compared with suramines and 1,3,6-NTS ([6]; mouse, in vivo): considerably more effective neovascularization inhibitor
- mitogenesis inductor / tumorigenic effect on quiescent fibroblasts in the absence of aFGF ([7]; absence of aFGF): does not occur
- toxicity for quiescent fibroblasts [7]: innocuous
- toxicity for quiescent fibroblasts ([7]; listed as sodium 5-amino-2-naphthalenesulfonate): not toxic

Structure (SMILES): O=S(=O)(O)c1ccc2c(S(=O)(=O)O)cc(S(=O)(=O)O)cc2c1 [1,3,6-NTS, 1,3,6-naphthalenetrisulfonic acid]
- aFGF-induced mitogenic activity inhibition (literature) [8]: aFGF-induced mitogenic activity inhibitors
- concentration required to reach substantial neovascularization inhibition [9]: about 200 mg/kg
- aFGF-induced angiogenesis and glioma proliferation inhibition (literature) [10]: positive results

Structure (SMILES): O=S(=O)(O)c1cccc2c(S(=O)(=O)O)cccc12 [1,5-NDS, 1,5-naphthalenedisulfonic acid, reference compound]
- aFGF-induced mitogenic activity inhibition (literature) [8]: better aFGF mitogenic activity inhibitors than NTS; also recorded: aFGF-induced mitogenic activity inhibitors
- toxicity at concentrations at which aFGF mitogenic activity is inhibited (literature) [11]: clear toxicity; also recorded: toxic

Structure (SMILES): O=S(=O)(O)c1cccc2ccccc12 [Compound C-1, 1-naphthalenesulfonic acid]
- aFGF-induced mitogenic activity inhibition (in words) ([5]; Balb/c 3T3 fibroblasts): aFGF-induced mitogenic activity inhibitors
- aFGF-induced mitogenic activity inhibition (literature) ([8]; listed as 1-NMS): better aFGF mitogenic activity inhibitors than NTS; also recorded: aFGF-induced mitogenic activity inhibitors; also recorded: more potent inhibitor than 1,3,6-NTS and 1,5-NDS
- toxicity at concentrations at which aFGF mitogenic activity is inhibited (literature) ([11]; listed as 1-NMS): clear toxicity; also recorded: toxic
- toxicity for quiescent fibroblasts [7]: certain toxic effect
